Source: US20020127186A1, “Use of electrolytes (lons in solution) to suppress charging of inhalation aerosols” (priority 2000, published 2002)

Assays:
[1] = Net aerosol electric charge of AERx aerosols, measured with a Faraday cup; assay type: physicochemical
Procedure: The AERx™ system (as described and disclosed in U.S. Pat. Nos. 5,544,646 and 6,123,068) produces aerosols by extruding the liquid contents of a single dose blister packet (here 45 uL) through an array of micro-drilled holes. The jets formed during the extrusion process are entrained by the patient inhalation air flow. (Schuster J et al., In Drug Delivery to the Lungs VIII, pp14-17, 1997; Schuster J et al., In Respiratory Drug Delivery VI, pp. 83-90, 1998).
For the measurements of electric charge, the air flow was simulated with pressurized house air. A Faraday cup was inserted in the flow path of the aerosol a few centimeters downstream from the point of generation. It comprised a perforated aluminum cartridge filled with a paper filter, which was inserted into and insulated from a grounded metal enclosure, used as a shield from external electromagnetic noise. A coaxial wire connected to the aluminum cartridge was passed through the metal enclosure and connected to a current-voltage converter of the op-amp design (ammeter). The voltage output from the ammeter was acquired as a function of time by a computer together with other information about the extrusion process, such as the position of the piston that pressurizes the blister pack during an extrusion.
The formulations tested in EXAMPLES 1, 2 and 3 were de-ionized water (DI), sterile water for injection USP (WFI), 5 mM and 10 mM sodium chloride in water, and 30 mg/ml sodium cromoglycate (cromolyn) in water.
The region between aerosol generation and the Faraday cup was inspected after each extrusion (“run”), and any residue found was wiped clean. This region was all metallic in the system used here and comprised two separable parts, the so-called “clamp”, in which the packet is held and the aerosol is generated, and the so-called “diffuser”, which is positioned immediately downstream from the clamp. This diffuser was removed in some of the Examples herein discussed.
A measure of the net electric charge carried by the bolus was obtained from the numerical integral over time of the electric current signals. […]

[2] = Residue between aerosol generation and Faraday cup, inspected after each extrusion; assay type: physicochemical; conditions: EXAMPLE 1, diffuser on; 30 mg/ml in water; compared with DI water
Source text: The region between aerosol generation and the Faraday cup was inspected after each extrusion (“run”), and any residue found was wiped clean. This region was all metallic in the system used here and comprised two separable parts, the so-called “clamp”, in which the packet is held and the aerosol is generated, and the so-called “diffuser”, which is positioned immediately downstream from the clamp. This diffuser was removed in some of the Examples herein discussed. […] Several runs carried out with a “dummy” packet that contained no liquid (labeled “no article” by the “X” in FIG. 1) gave rise to no measurable levels of charge. […] The difference in residue is another indication of high charging.

[3] = EXAMPLE 2, diffuser not present, solutions in water (5 and 10 mM NaCl; 30 mg/ml cromolyn), compared with WFI, FIG. 2

| net aerosol charge ([1]; EXAMPLE 1, diffuser on, 30 mg/ml in water, compared with DI water, FIG. 1) | Compound | net aerosol charge [1, 3] | residue in the diffuser [2] |
| --- | --- | --- | --- |
| – | [Cl-].[Na+] [NaCl, sodium chloride] | much lower charge than water for injection | – |
| significantly reduced charge level | O=C(O)c1cc(=O)c2c(OCC(O)COc3cccc4oc(C(=O)O)cc(=O)c34)cccc2o1 [cromolyn, sodium cromoglycate] | much lower charge than water for injection | a small fraction of the initial packet contents |
